Series [1] relates to NL-RLuc virus (recombinant HIV NL4-3 with Renilla Luciferase) in MT-2 cells. Briefly: Inhibition of HIV replication (NL-RLuc virus in MT-2 cells, luciferase readout). Particulars: MT2, 120 h, NL-RLuc virus infecting MT-2 cells, 5 days of incubation, 10% FBS, luciferase quantitation; at least 2 experiments. Format: cell-based, human immunodeficiency virus (HIV). Summed up: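 NL4-3 carrying Renilla luciferase in place of part of nef, produced in 293T cells, was used to infect MT-2 cells in RPMI 1640/10% FBS with serial compound dilutions. After 5 days, virus growth was read by luciferase. EC50 came from the median effect equation over at least 2 experiments.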

The conditions of series [2]: rcm bond, 20-membered ring, Hoveyda-Grubbs II/CuI, DCE, 90.0 °C.

Molecules are shown by their SMILES. Like-named read-outs stand apart in the source and are kept apart here.

What is called EC50 is the concentration that produces a half-maximal response.

As for `CCOC(=O)[C@@H](OC(C)(C)C)c1c(C)nc2cc3nn2c1N1CCC(C)(CC1)OCC=CCCc1cccc(c1)COC3`, where the note is “from C=CCCc1cccc(COCc2cc3nc(C)c([C@H](OC(C)(C)C)C(=O)OCC)c(N4CCC(C)(OCC=C)CC4)n3n2)c1, rcm bond, 20-membered ring, Grubbs II, DCM, 1.62 mM, 2.0 h, 2 steps”, the ring closure, isolated yield was determined as 41.8%.

Consider `CCOC(=O)[C@@H](OC(C)(C)C)c1c(C)nc2cc3nn2c1N1CCC(C)(CC1)OCC=CCc1cc(C)ccc1COC3`, for which, under “from C=CCOC1(C)CCN(c2c([C@H](OC(C)(C)C)C(=O)OCC)c(C)nc3cc(COCc4ccc(C)cc4CC=C)nn23)CC1, rcm bond, 18-membered ring, Grubbs II (1 eq), then NaBH4/MeOH, DCM, 1.62 mM, 40.0 °C, 2.0 h, 2 steps”, the ring closure, isolated yield is 62.6%.

`CCOC(=O)[C@@H](OC(C)(C)C)c1c(C)nc2cc3nn2c1N1CCC(C)(CC1)OCC=Cc1ccccc1CC=C3` displayed a ring closure, isolated yield (from C=CCOC1(C)CCN(c2c([C@H](OC(C)(C)C)C(=O)OCC)c(C)nc3cc(C=CCc4ccccc4Br)nn23)CC1, cc_pd bond, 17-membered ring, Pd2(dba)3/PPh3/Et3N, acetonitrile, 35.2 mM, 120.0 °C, 20.0 h) of 51.6%.

Turning to `COC(=O)[C@@H](OC(C)(C)C)c1c(C)nc2cc3nn2c1N1CCC(C)(CC1)OCC=Cc1ccccc1COC3`, the ring closure, isolated yield (from C=CCOC1(C)CCN(c2c([C@H](OC(C)(C)C)C(=O)OC)c(C)nc3cc(COCc4ccccc4Br)nn23)CC1, cc_pd bond, 17-membered ring, Pd2(dba)3/PPh3/Et3N, acetonitrile, 40.0 mM, 120.0 °C, 18.0 h) stood at 78%.

`CCOC(=O)[C@@H](OC(C)(C)C)c1c(C)nc2cc3nn2c1N1CCC(C)(CC1)OCC=Cc1cc(C(F)(F)F)ccc1COC3`: the ring closure, isolated yield (from C=CCOC1(C)CCN(c2c([C@H](OC(C)(C)C)C(=O)OCC)c(C)nc3cc(COCc4ccc(C(F)(F)F)cc4Br)nn23)CC1, cc_pd bond, 17-membered ring, Pd2(dba)3/PPh3/Et3N, MeCN, 35.1 mM, 120.0 °C, 23.0 h) came out at 62.9%.

`CCOC(=O)[C@@H](OC(C)(C)C)c1c(C)nc2cc3nn2c1N1CCC(C)(CC1)OCC=CCc1ccccc1COC3` had a ring closure, isolated yield (from C=CCOC1(C)CCN(c2c([C@H](OC(C)(C)C)C(=O)OCC)c(C)nc3cc(COCc4ccccc4CC=C)nn23)CC1, rcm bond, 18-membered ring, Hoveyda-Grubbs II (20 mol%)/CuI, 1,2-dichloroethane, 1.4 mM, 70.0 °C, 2.0 h) of 76%.

For the molecule `Cc1nc2cc3nn2c(c1[C@H](OC(C)(C)C)C(=O)O)N1CCC(C)(CC1)OCC=CC[C@H](C)Oc1cc(F)cc(F)c1COC3` [Example 31, (2S)-2-(tert-Butoxy)-2-[(20S)-14,16-difluoro-4,20,26-trimethyl-11,19,25-trioxa-1,5,7,8-tetraazapentacyclo[24.2.2.1^6,^9.0^2,^7.0^13,^18]hentriaconta-2,4,6(31),8,13,15,17,22-octaen-3-yl]acetic acid], the concentration for a half-maximal effect (EC50) in series [1] amounted to 12 nM. The molecule further displayed a ring closure, yield after HPLC in series [2] (from C=CCOC1(C)CCN(c2c([C@H](OC(C)(C)C)C(=O)O)c(C)nc3cc(COCc4c(F)cc(F)cc4O[C@@H](C)CC=C)nn23)CC1, 11.5 mM, 1.5 h) of 5.67%.

Molecule `CCOC(=O)[C@@H](OC(C)(C)C)c1c(C)nc2cc3nn2c1N1CCC(C)(CC1)OCC=CCc1cc(F)c(F)cc1COC3` showed a ring closure, isolated yield (from C=CCOC1(C)CCN(c2c([C@H](OC(C)(C)C)C(=O)OCC)c(C)nc3cc(COCc4cc(F)c(F)cc4CC=C)nn23)CC1, rcm bond, 18-membered ring, Grubbs II (0.1 eq), then NaBH4/MeOH, DCM, 1.56 mM, 40.0 °C, 2.0 h, 2 steps) of 62.5%.

As for `Cc1ccc2c(c1)COCc1cc3nc(C)c([C@H](OC(C)(C)C)C(=O)O)c(n3n1)N1CCC(C)(CC1)OCC=CC[C@H](C)O2` [Example 29, (2S)-2-(tert-Butoxy)-2-[(20S)-4,15,20,26-tetramethyl-11,19,25-trioxa-1,5,7,8-tetraazapentacyclo[24.2.2.1^6,^9.0^2,^7.0^13,^18]hentriaconta-2,4,6(31),8,13,15,17,22-octaen-3-yl]acetic acid], the EC50 in series [1] was 6 nM. Also, the ring closure, yield after HPLC in series [2] (from C=CCOC1(C)CCN(c2c([C@H](OC(C)(C)C)C(=O)O)c(C)nc3cc(COCc4cc(C)ccc4O[C@@H](C)CC=C)nn23)CC1, 13.0 mM, 3.0 h) was found to be 5.64%.

For the molecule `CCOC(=O)[C@@H](OC(C)(C)C)c1c(C)nc2cc3nn2c1N1CCC(C)(CC1)OCC=CCc1cc(F)ccc1COC3`, the ring closure, isolated yield (from C=CCOC1(C)CCN(c2c([C@H](OC(C)(C)C)C(=O)OCC)c(C)nc3cc(COCc4ccc(F)cc4CC=C)nn23)CC1, rcm bond, 18-membered ring, Grubbs II (1 eq), then NaBH4/MeOH, DCM, 1.6 mM, 40.0 °C, 2.0 h, 2 steps) was found to be 44.7%.

In the case of `Cc1nc2cc3nn2c(c1[C@H](OC(C)(C)C)C(=O)O)N1CCC(C)(CC1)OCC=CC[C@H](C)Oc1cc(Cl)ccc1COC3` [Example 34, (2S)-2-(tert-Butoxy)-2-[(20S)-16-chloro-4,20,26-trimethyl-11,19,25-trioxa-1,5,7,8-tetraazapentacyclo[24.2.2.1^6,^9.0^2,^7.0^13,^18]hentriaconta-2,4,6(31),8,13,15,17,22-octaen-3-yl]acetic acid], in series [1], the EC50 is 5 nM. Besides, in series [2] (from C=CCOC1(C)CCN(c2c([C@H](OC(C)(C)C)C(=O)O)c(C)nc3cc(COCc4ccc(Cl)cc4O[C@@H](C)CC=C)nn23)CC1, 31.5 mM, 1.5 h), the ring closure, yield after HPLC was 7.32%.

The values are drawn from patent publication US9273067B2, “Pyrazolopyrimidine macrocycles as inhibitors of human immunodeficiency virus replication” (BRISTOL-MYERS SQUIBB COMPANY, priority 2014, dated 2016).
